Assay results: patent publication US20130184310A1, “TREATMENT OF LUPUS ARTHRITIS USING LAQUINIMOD” (Teva Pharmaceutical Industries, Ltd., priority 2010, published 2013)

What was measured:
[1] = system: (NZBxNZW)F1 mouse model of SLE; conditions: MTX 35 μg/mouse p.o. 3 times a week; for immune complex deposition (ICD) in kidney glomeruli: end of experiment (12 weeks) vs vehicle; for immune complex deposition (ICD) in kidney glomeruli / proteinuria (PU): laquinimod 25 mg/kg p.o. daily, CTX 25 mg/ig i.p. once weekly; for proteinuria (PU): week 12 observation vs vehicle (water)
Method: (NZBxNZW)F1 are lupus-prone mice that develop an SLE-like disease spontaneously including anti-dsDNA antibodies (Abs), proteinuria and Immune Complex Deposits (ICD).
In a number of studies, the effect of various doses of laquinimod in the (NZBxNZW)F1 model for SLE were assessed. The studies also included a negative control (water) and positive controls including cyclophosphamide (CTX) and methotrexate (MTX).
This study investigated the effect of laquinimod, an immunomodulator of SLE in a murine model of SLE and compared the treatment effect to reference substances CTX and MTX.
Laquinimod and reference compounds CTX and MTX were applied in therapeutic mode, starting the treatment at the time when the characteristic change of murine SLE model, proteinuria (PU) was present in >80% of animals, and the observation and treatment period following this was 12 weeks. Laquinimod was applied p.o. daily, in a dose of 25 mg/kg. CTX was applied once weekly in a dose of 25 mg/ig i.p. MTX was applied 3 times a week p.o. at 35 μg/mouse.
Also, body weight changes were recorded weekly and at the end of experiment both kidneys were preserved, one for possible conventional histology and one for immune complex detection *ICD) in glomeruli. Evaluation of ICD was performed by scoring and by image analysis.
80 animals were involved in the study.

[2] = system: (NZBxNZW)F1 mice; assay: Survival dose response study of laquinimod in the (NZBxNZW)F1 model for SLE, 37 weeks (Example 1.2); format: in vivo, mouse
Method: This was a survival dose response study to determine whether laquinimod is effective in suppressing the symptoms in (NZBxNZW)F1 mice. The positive control used was Cytoxan.
Seventy-one mice having spontaneous disease developed by the age of 7 months (as measured by proteinuria) were divided into 6 experimental groups (Water, CTX, Laquinimod 0.2 mg/kg, Laquinimod 1.0 mg/kg, Laquinimod 5.0 mg/kg, Laquinimod 25.0 mg/kg) according to their PU scores.
Water and Laquinimod were administered orally (200 μl/mouse) 5 days a week. CTX was administered intraperitonealy once weekly, (200 μl/mouse). Blood samples were collected on weeks 1, 5, 15 and 37. Serum samples were prepared for detection of anti-dsDNA antibodies. After 37 weeks (257 days) of treatment, mice were sacrificed.

[3] = system: (NZBxNZW)F1 mice; assay: Confirmation of efficacy of laquinimod in the (NZBxNZW)F1 model for SLE, 13 weeks (Example 1.3); format: in vivo, mouse
Method: This study examined the effect of laquinimod (0.2 and 5 mg/kg) versus CTX and vehicle treated (NZBxNZZW)F1 mice. Seventy mice having spontaneous disease developed by the age of 7 months (as measured by proteinuria) were divided into 4 experimental groups (Water, CTX, Laquinimod 0.2 mg/kg, Laquinimod 5.0 mg/kg,) according to their PU scores. Water and Laquinimod were administered orally (200 μl/mouse) 5 days a week. CTX was administered intraperitonealy once weekly, (200 μl/mouse). Blood samples were collected on weeks 1, 5, and 11. Serum samples were prepared for detection of anti-dsDNA antibodies. After 13 weeks of treatment, mice were sacrificed and immune complex deposits in their kidneys were evaluated.

[4] = system: MRL/lpr lupus mouse model; assay: Non-GLP in vivo evaluation of laquinimod in the MRL/lpr lupus mouse model (Example 1.4); conditions: for kidney glomerulonephritis (histopathology) / salivary gland inflammation (histopathological scoring): laquinimod 5 mg/kg p.o., MMF 100 mg/kg p.o., compared to vehicle
Method: This study evaluates the efficacy of laquinimod in the MRL/lpr lupus mouse model.
Animals were monitored until their urine proteinuria reached >200 mg/dL at which time they were enrolled in the study. Animals were dosed with either 1 or 5 mg/kg of laquinimod, p.o., 100 mg/kg mycophenolate mofetil (MMF, CellCept®) p.o., or vehicle (water DDW), p.o., daily except weekends.
Proteinuria, ankle and paw diameters, dsDNA autoantibody levels and survival were monitored during in life portion of the study. At termination, blood samples were harvested for determination of dsDNA autoantibody levels, spleens were harvested and weighed then processed to isolate splenocytes which were counted. Kidney, lung, skin, lymph node, salivary gland and joints were harvested, processed for histological examination and scored by a histopathologist blind to the treatments.

[5] = system: Systemic Lupus Erythematosus (SLE) patients with active lupus arthritis; assay: Phase IIa randomized, double-blind, placebo-controlled clinical trial of laquinimod in lupus arthritis (Example 2); format: in vivo, human; conditions: daily oral 0.5 mg or 1 mg
Method: A multicenter, randomized, double-blind, placebo controlled clinical trial is conducted to evaluate the safety, tolerability, biomarkers and clinical effect of laquinimod (0.5 mg/day and 1 mg/day) in Systemic Lupus Erythematosus (SLE) patients with active lupus arthritis.
Approximately 90 Systemic Lupus Erythematosus patients with active lupus arthritis are enrolled. (approximately 30 subjects per treatment arm). Drop-outs are not replaced.
The overall study duration is up to 20 weeks, with the screening period being up to 2 weeks, the treatment period being 12 weeks and the follow-up period being 4 weeks.
Capsules containing laquinimod 0.5 mg and/or matching placebo are administered orally once daily: • 1. Laquinimod 0.5 mg arm—1 capsule of laquinimod 0.5 mg and 1 matching placebo capsule. • 2. Laquinimod 1 mg arm—2 capsules of laquinimod 0.5 mg. • 3. Placebo arm—2 capsules of placebo.
This is a Phase IIa, randomized, double-blind, placebo-controlled, study to assess the safety, tolerability, pharmacokinetics, biomarkers and clinical effect of two doses of laquinimod in Systemic Lupus Erythematosus patients with active lupus arthritis. This study evaluates the safety, tolerability of two doses of laquinimod (0.5 mg and 1 mg/day) in Systemic Lupus Erythematosus patients with active lupus arthritis. This study also evaluates biomarkers and clinical effect of laquinimod (0.5 mg and 1 mg/day) in Systemic Lupus Erythematosus patients with active lupus arthritis.
Subjects are initially randomized in a 1:1 ratio into one of the following two treatment arms: • 1. Laquinimod 0.5 mg. • 2. Matching placebo.
Enrollment to the 1 mg laquinimod dose group is initiated following the approval of the study safety committee, based on data of at least 10 subjects who have completed at least 4 weeks of treatment. Upon approval, randomization into one of the following three treatment arms occurs in a ratio that allows for reaching an overall target enrollment of approximately 30 subjects per treatment arm. • 1. Laquinimod 0.5 mg. • 2. Laquinimod 1 mg. • 3. Matching placebo.
Scheduled in-clinic visits are conducted at screening, baseline and at weeks 2, 4, 8, 12 and 16.
Treatment with laquinimod/placebo is discontinued on visit week 12 and a follow-up/study completion visit is conducted at week 16. Subjects who early discontinued study drug prior to visit week 12 preferably attend a follow-up study completion visit within 4 weeks (28 days) of treatment termination visit.
During the study period the British Isles Lupus Assessment Group (BILAG) score, SLE Disease Activity Index (SLEDAI 2K), Swollen and Tender joint count, Patient Global Assessment score (PGA), Evaluator Global Assessment score (EGA) and Patient Pain assessment (PtP) are assessed in addition to routine safety laboratory and physical tests, PK analysis and disease related immunology tests/biomarkers.
Response Definitions • BILAG MSK response is defined as change from Musculoskeletal A or B at baseline to C or D at LOV. • BILAG Substantial Responder (SR) is defined as all systems at last observed value (LOV) are C or D/E providing at least one system is A or B at baseline. • SLEDAI 2K response—decrease in SLEDAI of at least 4 point compared to baseline • Medicinal/Interventional flare defined as any of the following • Steroid increase by at least 5 mg/day compared to previous dose or compared to baseline or any IV, IM or Intraarticular dose. • New continuous treatment (>3 days) or increase in dose of NSAIDs or COX2 inhibitors. • New treatment or dose increase with an immunosuppressive drug compared to previous dose or compared to baseline. • Treatment with biologic agents, IVIG or plasmapheresis. • New treatment or dose increase of antimalarial drugs compared to previous dose or compared to baseline.
Lupus Arthritis • 1. […]

[6] = laquinimod low dose 0.2 mg/kg orally 5 days a week
[7] = laquinimod 5 mg/kg p.o. compared to vehicle
[8] = study period, compared to placebo

CN(Cc1cnc2nc(N)nc(N)c2n1)c1ccc(C(=O)N[C@@H](CCC(=O)O)C(=O)O)cc1 [MTX, methotrexate]
animals died during the treatment period ([1]; 12 week treatment period, 80 animals in study): 2 | immune complex deposition (ICD) in kidney glomeruli [1]: failed to inhibit the symptoms | proteinuria (PU) [1]: failed to inhibit the symptoms

O=P1(N(CCCl)CCCl)NCCCO1 (stereo not drawn) [CTX, cyclophosphamide]
immune complex deposition (ICD) in kidney glomeruli [1]: significantly inhibited | proteinuria (PU) [1]: significantly diminished the proteinuria

CCN(C(=O)c1c(O)c2c(Cl)cccc2n(C)c1=O)c1ccccc1 [laquinimod]
progression of proteinuria ([2]; all doses of laquinimod (0.2, 1.0, 5.0, 25.0 mg/kg) orally 5 days a week, in comparison to vehicle): abrogated the progression of proteinuria | survival ([2]; all doses of laquinimod (0.2-25 mg/kg), 37 weeks of treatment): significant prolongation of survival | proteinuria ([2]; laquinimod dose of 0.2 mg/kg orally 5 days a week): abrogated proteinuria but not to the same extent as compared to the higher doses | proteinuria, compared with positive control CTX ([2]; laquinimod doses of 1, 5 and 25 mg/kg orally 5 days a week): as effective as the positive control cyclophosphamide (CTX) | anti-dsDNA levels ([2]; serum, weeks 1, 5, 15 and 37, laquinimod 0.2-25 mg/kg): dose dependent reduction in antibody levels over time | anti-dsDNA levels ([3]; laquinimod 5 mg/kg orally 5 days a week): behaved similarly to the positive control CTX | immune complex deposits in kidneys ([3]; laquinimod 5 mg/kg orally 5 days a week, after 13 weeks): behaved similarly to the positive control CTX | disease progression as measured by proteinuria ([3]; laquinimod 0.2 and 5 mg/kg orally 5 days a week, 13 weeks): abrogated disease progression | anti-dsDNA Ab titers [3, 6]: did not inhibit | proteinuria [3, 6]: prevented increased proteinuria | ICD (immune complex deposits) ([3]; laquinimod low dose 0.2 mg/kg orally 5 days a week, after 13 weeks): did not inhibit | bone resorption (joint histopathology) ([4]; both doses of laquinimod (1 and 5 mg/kg p.o.) compared to vehicle): Significant reductions | salivary gland inflammation score, higher dose vs lower dose ([4]; laquinimod 5 mg/kg compared with 1 mg/kg): significantly lower score | cartilage damage (joint histopathology) [4, 7]: significant reduction | joint inflammation (histopathology) [4, 7]: significantly reduced | splenocytes as percent of total spleen cells [4, 7]: significant reduction | kidney glomerulonephritis (histopathology) [4]: significant reductions | salivary gland inflammation (histopathological scoring) [4]: significant reduction | measures during the in life phase (proteinuria, ankle and paw diameters, dsDNA autoantibody levels, survival) ([4]; laquinimod 1 or 5 mg/kg p.o., trends not significant except for some sporadic time points): trend toward dose dependent efficacy | tolerability ([5]; compared to placebo): well tolerated | toxicity ([5]; compared to placebo): no toxicity | 66 swollen/68 tender joint count (JC66/68) ([5]; study period): reduces | C-Reactive Protein level ([5]; study period): lowers | Disease Activity Score using 28 joint counts (DAS28) ([5]; study period): reduces | anti-dsDNA level ([5]; study period): lowers | physician global assessment (PGA) score ([5]; study period): reduces | serum chemokine level ([5]; study period): lowers | serum cytokine level ([5]; study period): lowers | BILAG MSK response [5, 8]: improves | BILAG score [5, 8]: improves | swollen joint count [5, 8]: reduces | tender joint count [5, 8]: reduces | immune complex deposition (ICD) in kidney glomeruli [1]: significantly inhibited | proteinuria (PU) [1]: significantly diminished the proteinuria

COc1c(C)c2c(c(O)c1C/C=C(\C)CCC(=O)OCCN1CCOCC1)C(=O)OC2 [MMF, mycophenolate mofetil, reference compound]
lung BALT hyperplasia (histopathology) ([4]; MMF 100 mg/kg p.o. vs vehicle): significant difference | kidney glomerulonephritis (histopathology) [4]: significant reductions | salivary gland inflammation (histopathological scoring) [4]: significant reduction
